Test results: ChEMBL document CHEMBL1201862, “PubChem BioAssay data set” (2004)
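Results reflect a 48-hour exposure of cells in 96-well plates to compound at five concentrations. GI50 marks 50% less growth.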 Active and inactive are the calls of the source. Rule as the data show it: active = GI50 up to about 1.1 µM and inactive = higher.

What was measured:
Assay in all cases: NCI anticancer screen, dose series, 48 h
A549 = tested on: A549
LOX IMVI = tested on: LOX IMVI
OVCAR-5 = tested on: OVCAR-5
HCC 2998 = tested on: HCC 2998
OVCAR-4 = tested on: OVCAR-4
MDA-N = tested on: MDA-N
COLO 205 = tested on: COLO 205
UACC-62 = tested on: UACC-62
MOLT-4 = tested on: MOLT-4
HCT-15 = tested on: HCT-15
OVCAR-8 = tested on: OVCAR-8
TK-10 = tested on: TK-10
NCI-H226 = tested on: NCI-H226
Malme-3M = tested on: Malme-3M
HOP-92 = tested on: HOP-92
HOP-62 = tested on: HOP-62
SF-539 = tested on: SF-539
KM12 = tested on: KM12
K562 = tested on: K562
NCI-H522 = tested on: NCI-H522

Measured: GI50

CN(C)CC/C=C1\c2ccccc2Sc2ccc(Cl)cc21
inactive: A549 14.6 µM | LOX IMVI 13.8 µM | OVCAR-5 13.9 µM | HCC 2998 2.22 µM | OVCAR-4 12.6 µM | MDA-N 12.7 µM | COLO 205 14.2 µM | UACC-62 13.6 µM | MOLT-4 11.5 µM | OVCAR-8 15.5 µM | TK-10 14.5 µM | NCI-H226 18.6 µM | Malme-3M 12.8 µM | HOP-92 4.75 µM | HOP-62 14.4 µM | SF-539 19 µM | KM12 21 µM | K562 5.16 µM | NCI-H522 12.6 µM
15.4 µM: HCT-15

CC(=O)Nc1ccc2c3c(cc(O)c2c1)N(C(=O)CCCCC(=O)N1CC(CCl)c2c1cc(O)c1cc(NC(C)=O)ccc21)CC3CCl (centres undefined)
12.9 µM: HCT-15
inactive: OVCAR-5 1.37 µM | OVCAR-4 1.63 µM | TK-10 2.19 µM
active: A549 0.147 µM | LOX IMVI 0.0313 µM | HCC 2998 0.21 µM | MDA-N 0.174 µM | COLO 205 0.102 µM | UACC-62 0.0154 µM | MOLT-4 < 0.01 µM | OVCAR-8 0.253 µM | NCI-H226 0.0333 µM | Malme-3M 0.149 µM | HOP-92 0.207 µM | HOP-62 0.177 µM | SF-539 0.0527 µM | KM12 0.505 µM | K562 0.284 µM | NCI-H522 0.0575 µM

Cc1ccc([N+](=O)[O-])cc1S(=O)(=O)Nc1ccc(C2=NOC(c3ccccc3O)C2)cc1 (centres undefined)
inactive: A549 4.97 µM | LOX IMVI 9.95 µM | OVCAR-5 33.4 µM | HCC 2998 7.01 µM | OVCAR-4 3 µM | MDA-N 1.56 µM | COLO 205 3.54 µM | UACC-62 2.97 µM | MOLT-4 2.76 µM | OVCAR-8 31.2 µM | TK-10 18.3 µM | NCI-H226 5.82 µM | Malme-3M 3.95 µM | HOP-92 26.2 µM | HOP-62 5.12 µM | SF-539 4.58 µM | KM12 3.16 µM | K562 2.25 µM | NCI-H522 1.29 µM
3.44 µM: HCT-15

CN1C(=O)C(O)C[C@@H]1c1ccccc1 (some centres undefined)
> 100 µM: HCT-15
inactive: A549 > 100 µM | LOX IMVI > 100 µM | OVCAR-5 > 100 µM | HCC 2998 > 100 µM | OVCAR-4 > 100 µM | MDA-N > 100 µM | COLO 205 > 100 µM | UACC-62 > 100 µM | MOLT-4 > 100 µM | OVCAR-8 > 100 µM | TK-10 > 100 µM | NCI-H226 > 100 µM | Malme-3M > 100 µM | HOP-92 > 100 µM | HOP-62 > 100 µM | SF-539 > 100 µM | KM12 > 100 µM | NCI-H522 > 100 µM

Nc1nccc(NCC2(CO)CC(OCc3ccccc3)C2)n1 (centres undefined)
> 100 µM: HCT-15
inactive: A549 > 100 µM | LOX IMVI > 100 µM | OVCAR-5 > 100 µM | HCC 2998 > 100 µM | OVCAR-4 48.3 µM | MDA-N > 100 µM | COLO 205 99.1 µM | UACC-62 > 100 µM | MOLT-4 > 100 µM | OVCAR-8 > 100 µM | NCI-H226 > 100 µM | Malme-3M > 100 µM | HOP-92 56.9 µM | HOP-62 > 100 µM | SF-539 > 100 µM | KM12 > 100 µM | K562 79.1 µM | NCI-H522 98.9 µM

CCOC(=O)c1nc2ccc(C(F)(F)F)cc2nc1NCc1ccc(F)cc1
29.4 µM: HCT-15
inactive: A549 42.8 µM | LOX IMVI 26.1 µM | OVCAR-5 64.3 µM | HCC 2998 24.8 µM | OVCAR-4 12 µM | MDA-N 25.4 µM | COLO 205 27 µM | UACC-62 23.1 µM | MOLT-4 42.8 µM | OVCAR-8 30.9 µM | TK-10 27.9 µM | NCI-H226 29 µM | Malme-3M 35.5 µM | HOP-92 4.83 µM | HOP-62 47.3 µM | SF-539 80 µM | KM12 58.7 µM | K562 24.5 µM | NCI-H522 18.1 µM

Cc1n(-c2ccccc2)c2c([n+]1Cc1ccc([N+](=O)[O-])cc1)C(=O)c1ccccc1C2=O
9.12 µM: HCT-15
inactive: A549 3.56 µM | LOX IMVI 1.75 µM | OVCAR-5 2.02 µM | HCC 2998 2.26 µM | OVCAR-4 1.66 µM | MDA-N 1.77 µM | COLO 205 1.59 µM | UACC-62 2.03 µM | OVCAR-8 2.37 µM | TK-10 7.66 µM | NCI-H226 5.43 µM | Malme-3M 1.67 µM | HOP-92 2.3 µM | HOP-62 6.5 µM | SF-539 1.97 µM | KM12 2.29 µM | K562 1.16 µM
active: MOLT-4 0.59 µM | NCI-H522 0.579 µM

O=c1oc2ccccc2c(-c2ccc(O)cc2)c1Oc1ccc(Cl)cc1
30.1 µM: HCT-15
inactive: A549 19.3 µM | LOX IMVI 24.7 µM | OVCAR-5 31.8 µM | HCC 2998 16.9 µM | OVCAR-4 38.4 µM | MDA-N 19.5 µM | COLO 205 23.2 µM | UACC-62 19.9 µM | OVCAR-8 25.8 µM | TK-10 20.7 µM | NCI-H226 20.5 µM | Malme-3M 18.2 µM | HOP-92 19.8 µM | SF-539 30.4 µM | KM12 26.5 µM | K562 21 µM | NCI-H522 16.9 µM

Cc1cc(N(CCOS(C)(=O)=O)CCOS(C)(=O)=O)ccc1/C=N/c1ccc(-c2csc(-c3ccccc3)n2)c(Cl)c1
inactive: A549 1.95 µM | LOX IMVI 6.73 µM | OVCAR-5 17.3 µM | HCC 2998 2.93 µM | OVCAR-4 16 µM | MDA-N 3.78 µM | COLO 205 1.64 µM | UACC-62 2.95 µM | MOLT-4 2.43 µM | OVCAR-8 15.9 µM | TK-10 10.5 µM | NCI-H226 9.12 µM | Malme-3M 11.9 µM | HOP-92 9.64 µM | HOP-62 6.05 µM | SF-539 3.94 µM | KM12 11.2 µM | K562 6.28 µM | NCI-H522 1.63 µM
8.04 µM: HCT-15

COc1c2ccoc2cc2oc(=O)ccc12 [BERGAPTEN]
inactive: A549 > 100 µM | LOX IMVI > 100 µM | OVCAR-5 > 100 µM | HCC 2998 > 100 µM | OVCAR-4 > 100 µM | MDA-N > 100 µM | COLO 205 > 100 µM | UACC-62 > 100 µM | MOLT-4 > 100 µM | OVCAR-8 > 100 µM | TK-10 > 100 µM | NCI-H226 > 100 µM | Malme-3M > 100 µM | HOP-92 > 100 µM | HOP-62 > 100 µM | SF-539 > 100 µM | K562 > 100 µM | NCI-H522 > 100 µM
> 100 µM: HCT-15

C/C(=C(/C)c1ccc(O)cc1)c1ccc(O)cc1 [DIMETHYLSTILBESTROL]
61.1 µM: HCT-15
inactive: A549 71.3 µM | OVCAR-5 > 100 µM | HCC 2998 > 100 µM | OVCAR-4 > 10 µM | MDA-N 31.8 µM | COLO 205 > 100 µM | UACC-62 23.7 µM | MOLT-4 45.5 µM | OVCAR-8 36.1 µM | TK-10 89.5 µM | NCI-H226 36.7 µM | Malme-3M 60.8 µM | HOP-92 27.4 µM | HOP-62 94 µM | SF-539 32.3 µM | KM12 62.7 µM | K562 46 µM | NCI-H522 > 100 µM
